Measured values taken from patent US20260285850A1, “SUBSTITUTED OXAZOLIDINONES AND IMIDAZOLINONES AS HERBICIDES” (FMC CORPORATION, priority 2023, published 2026).

Tests used:
Type in all cases: in vivo
[1] = test system: blackgrass (Alopecurus myosuroides); assay: Test A preemergence soil spray, visual injury rating 0-100; conditions: 10 days
Procedure, shortened: (§1)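 Preemergence directed soil spray or postemergence spray (2-10 cm, 1-2 leaf); loam/sand mix; compound in non-phytotoxic solvent + surfactant. Greenhouse, 10 d. Visual injury vs untreated, 0 = none, 100 = complete control.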

[2] = test system: kochia (Bassia scoparia); assay: as above; conditions: 10 days
Procedure, shortened: as §1

[3] = test system: ryegrass, Italian (italian ryegrass, Lolium multiflorum); assay: as above; conditions: 10 days
Procedure, shortened: as §1

[4] = test system: corn (Zea mays); assay: as above; conditions: 10 days
Procedure, shortened: as §1

[5] = test system: ragweed (common ragweed, Ambrosia artemisiifolia); assay: as above; conditions: 10 days
Procedure, shortened: as §1

[6] = test system: green foxtail (Setaria viridis); assay: as above; conditions: 10 days
Procedure, shortened: as §1

[7] = test system: barnyardgrass (Echinochloa crus-galli); assay: as above; conditions: 10 days
Procedure, shortened: as §1

[8] = test system: soybean (Glycine max); assay: as above; conditions: 10 days
Procedure, shortened: as §1

[9] = test system: oat, wild (wild oat, Avena fatua); assay: as above; conditions: 10 days
Procedure, shortened: as §1

[10] = test system: wheat (Triticum aestivum); assay: as above; conditions: 10 days
Procedure, shortened: as §1

[11] = test system: palmer (palmer amaranth, palmer pigweed, Amaranthus palmeri); assay: as above; conditions: 10 days
Procedure, shortened: as §1

[12] = test system: barnyardgrass (Echinochloa crusgalli); assay: Test B flooded paddy test, visual plant response rating 0-100; conditions: 250 g ai/ha, Flood, applied to paddy water, evaluated after 13 days
Procedure, shortened: (§2)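 Visual scores versus untreated controls were recorded 13 days after treatment of greenhouse-held plants. At the 2-leaf stage, pots were flooded 3 cm above the soil surface and compounds added straight to the water.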

[13] = test system: ducksalad (Heteranthera limosa); assay: as above; conditions: 250 g ai/ha, Flood, applied to paddy water, evaluated after 13 days
Procedure, shortened: as §2

[14] = test system: rice (Oryza sativa); assay: as above; conditions: 250 g ai/ha, Flood, applied to paddy water, evaluated after 13 days
Procedure, shortened: as §2

[15] = test system: sedge, umbrella (small-flower umbrella sedge, Cyperus difformis); assay: as above; conditions: 250 g ai/ha, Flood, applied to paddy water, evaluated after 13 days
Procedure, shortened: as §2

[16] = test system: blackgrass (Alopecurus myosuroides); assay: Test A postemergence application, visual injury rating 0-100
Procedure, shortened: as §1

[17] = test system: kochia (Bassia scoparia); assay: as above
Procedure, shortened: as §1

[18] = test system: ryegrass, Italian (italian ryegrass, Lolium multiflorum); assay: as above
Procedure, shortened: as §1

[19] = test system: corn (Zea mays); assay: as above
Procedure, shortened: as §1

[20] = test system: horseweed (Erigeron canadensis); assay: as above
Procedure, shortened: as §1

[21] = test system: ragweed (common ragweed, Ambrosia artemisiifolia); assay: as above
Procedure, shortened: as §1

[22] = test system: green foxtail (Setaria viridis); assay: as above
Procedure, shortened: as §1

[23] = test system: barnyardgrass (Echinochloa crus-galli); assay: as above
Procedure, shortened: as §1

[24] = test system: soybean (Glycine max); assay: as above
Procedure, shortened: as §1

[25] = test system: oat, wild (wild oat, Avena fatua); assay: as above
Procedure, shortened: as §1

[26] = test system: wheat (Triticum aestivum); assay: as above
Procedure, shortened: as §1

[27] = test system: palmer (palmer amaranth, palmer pigweed, Amaranthus palmeri); assay: as above
Procedure, shortened: as §1

[28] = 62 g ai/ha, 0 = no effect, 100 = complete control
[29] = 62 g ai/ha, postemergence, 10 days, 0 = no effect, 100 = complete control
[30] = Postemergence, 16 g ai/ha, greenhouse 10 days, 0 no effect, 100 complete control

CC(C)OC(=O)C1=CCC(NC(=O)C2(C)CN(c3cc(Cl)cc(Cl)c3)C(=O)O2)C1 (centres unmarked) [Compound 106]
0: Blackgrass plant response rating ([1]; 16 g ai/ha, 0 to 100 scale) | Blackgrass plant response rating (0-100) [1, 28] | Kochia plant response rating ([2]; 16 g ai/ha, 0 to 100 scale) | Kochia plant response rating (0-100) [2, 28] | Ryegrass, Italian plant response rating ([3]; 16 g ai/ha, 0 to 100 scale) | Ryegrass, Italian plant response rating (0-100) [3, 28] | Corn plant response rating ([4]; 16 g ai/ha, 0 to 100 scale) | Corn plant response rating (0-100) [4, 28] | Ragweed plant response rating ([5]; 16 g ai/ha, 0 to 100 scale) | Ragweed plant response rating (0-100) [5, 28] | Foxtail, Green plant response rating ([6]; 16 g ai/ha, 0 to 100 scale) | Foxtail, Green plant response rating (0-100) [6, 28] | Barnyardgrass plant response rating ([7]; 16 g ai/ha, 0 to 100 scale) | Barnyardgrass plant response rating (0-100) [7, 28] | Soybean plant response rating ([8]; 16 g ai/ha, 0 to 100 scale) | Soybean plant response rating (0-100) [8, 28] | Oat, Wild plant response rating ([9]; 16 g ai/ha, 0 to 100 scale) | Oat, Wild plant response rating (0-100) [9, 28] | Wheat plant response rating ([10]; 16 g ai/ha, 0 to 100 scale) | Wheat plant response rating (0-100) [10, 28] | Pigweed, Palmer plant response rating ([11]; 16 g ai/ha, 0 to 100 scale) | Pigweed, Palmer plant response rating (0-100) [11, 28] | Blackgrass plant response rating (0-100) [16, 29] | Blackgrass plant response rating (0 to 100 scale) [16, 30] | Kochia plant response rating (0-100) [17, 29] | Kochia plant response rating (0 to 100 scale) [17, 30] | Ryegrass, Italian plant response rating (0-100) [18, 29] | Ryegrass, Italian plant response rating (0 to 100 scale) [18, 30] | Corn plant response rating (0-100) [19, 29] | Corn plant response rating (0 to 100 scale) [19, 30] | Horseweed plant response rating (0-100) [20, 29] | Horseweed plant response rating (0 to 100 scale) [20, 30] | Ragweed plant response rating (0-100) [21, 29] | Ragweed plant response rating (0 to 100 scale) [21, 30] | Foxtail, Green plant response rating (0-100) [22, 29] | Foxtail, Green plant response rating (0 to 100 scale) [22, 30] | Barnyardgrass plant response rating (0-100) [23, 29] | Barnyardgrass plant response rating (0 to 100 scale) [23, 30] | Soybean plant response rating (0-100) [24, 29] | Soybean plant response rating (0 to 100 scale) [24, 30] | Oat, Wild plant response rating (0-100) [25, 29] | Oat, Wild plant response rating (0 to 100 scale) [25, 30] | Wheat plant response rating (0-100) [26, 29] | Wheat plant response rating (0 to 100 scale) [26, 30] | Pigweed, Palmer plant response rating (0-100) [27, 29] | Pigweed, Palmer plant response rating (0 to 100 scale) [27, 30]
10: Plant response rating, Rice (0 to 100 scale, 0 is no effect and 100 is complete control) [14]
98: Plant response rating, Sedge, Umbrella (0 to 100 scale, 0 is no effect and 100 is complete control) [15]
85: Plant response rating, Ducksalad (0 to 100 scale, 0 is no effect and 100 is complete control) [13]
65: Plant response rating, Barnyardgrass (0 to 100 scale, 0 is no effect and 100 is complete control) [12]
